In patent EP4186918A1 (Université de Rennes, priority 2021, dated 2023):
Entries after “also recorded” stand apart in the source; their conditions may differ.

Assays:
[1] = Critical Assembly Concentration (CCa) by sedimentation; type: physicochemical; details: batch of VQIVYK used in the study; fibrillation buffer 1X
Method: The polymerization of VQIVYK was initiated by mixing the VQIVYK peptide (at various concentrations, 52 µM to 344 µM) with 1/4 of its volume in fibrillation buffer 5X. Once polymerized, the samples were sedimented at 16,900 g for 15 minutes. The concentration of free peptide was measured by assay nanodrop 800. The concentration of polymerized peptide was thus determined using the following the relation: [1p]pellet = [1p]initial −[1p]supernatant [formula]

[2] = Thioflavin T fluorescence after polymerization (amyloidogenic character); type: physicochemical; details: 800 µM peptide; ThT fluorescence normalized to 1p = 100%
Method: (§1) After thawing, a pre-dilution in milli Q H2O filtered through 0.2 µm was carried out in order to obtain a solution at a concentration close to the working concentration, greater than 1.25 times. This stock solution was left to incubate for 1 hour in a water bath at 25°C, and was then assayed spectrophotometrically and adjusted to the final working concentration of 1.25 times. The polymerization was initiated by adding 1/4 of the volume of 5X fibrillation buffer (50 mM MOPS, 750 mM NaCl, pH = 7.2) for a final concentration of 1X fibrillation buffer (10 mM MOPS, 150 mM NaCl, PH = 7.2). The samples were left to incubate for 1.5-2 hours at 25°C in a water bath. The study of the polymerization by fluorimetry was carried out under the same conditions, except that the 5X polymerization buffer was supplemented with Thioflavin T (ThT) at 100 µM in order to be able to observe the fluorescence. • (a) Determination of the Aggregative Character of the Peptides. […] The concentration of the supernatant was determined using the Beer-Lambert law A = ε x 1 x C; ε (peptides) = 1450 M^-1cm^-1. […] The fluorescence of the sample was then measured immediately after dilution by recording a fluorescence spectrum (470 nm to 600 nm) at an excitation wavelength of 450 nm (Perkin Elmer LS 55, PM 750, slit10).

[3] = Garnier-Delamarche representation combining sedimentation and ThT fluorescence; type: physicochemical; details: from sedimentation and ThT fluorescence
Method: as §1, with “slit10). […]” for “slit10).”

[4] = Sedimentation after polymerization (aggregative character); type: physicochemical; details: 800 µM peptide; sedimentable peptide after polymerization as % of total concentration
Method: as §1

[5] = Polymerization kinetics of selected peptide alone, ThT spectrofluorimetry; type: physicochemical; details: 310 µM, ThT fluorescence
Method: (§2) After thawing, a pre-dilution of the peptides of interest in sterile water was carried out in order to obtain, for each peptide, a solution at a concentration close to the working concentration. The peptides were then left to incubate at 4°C overnight. On the day of the experiment, the peptide solutions were sonicated for 10 minutes, left to stand for one hour at room temperature, sonicated again for 10 minutes and assayed spectrophotometrically at 280 nm (ε = 1450 M^-1cm^-1). The UV spectra were previously normalized to 0 at 300 nm. The solutions were prepared at concentrations of peptides 1/4 above that desired in the end. The polymerization of VQIVYK was initiated by adding 1/4 of the volume of fibrillation buffer 5X for a final concentration of fibrillation buffer 1X (10 mM MOPS, 150 mM NaCl, pH = 7.2).
The analyses were carried out on a spectrofluorometer (LS 55 from Perkin Elmer) fitted with a 4-cell rack. Black quartz cells (0.2x1.0 cm) were used. […]
The results were first smoothed over 10 points with the "smooth" option of the KaleidaGraph software. […] Finally, the results of each kinetics were normalized relative to the fluorescence intensity of the 1p control after 100 minutes of polymerization considered to be 100%.

VQIVYK (PHF6) = test: Polymerization kinetics of 1p with selected peptides, ThT spectrofluorimetry; type: biochemical, human
Method: as §2
The analyses were carried out on a spectrofluorometer (LS 55 from Perkin Elmer) fitted with a 4-cell rack. Black quartz cells (0.2x1.0 cm) were used. Excitation and emission wavelengths were 450 nm and 480 nm, respectively, and the sensitivity (Photomultiplier "PM") was set at 800 V. The size of the slits was varied from 3 nm to 6 nm. Normalization of each kinetics was performed with respect to the position of the cell on the rack.
The results were first smoothed over 10 points with the "smooth" option of the KaleidaGraph software. After normalization with respect to the position of the cells in the rack, each start of kinetics was adjusted to 0 before the addition of the fibrillation buffer. Finally, the results of each kinetics were normalized relative to the fluorescence intensity of the 1p control after 100 minutes of polymerization considered to be 100%.

Critical Assembly Concentration (CCa) [1] [µM]	% fluorescence [2] [%]	% sedimentation [4] [%]	polymerization of peptide alone [5]	Substance	amyloidogenic and aggregative character [3]	category of polymerization kinetics of 1p in presence of peptide (VQIVYK (PHF6); [1p] = 155 µM, [selected peptide] = 310 µM)	effect on polymerization of 1p (VQIVYK (PHF6); [1p] = 155 µM, [selected peptide] = 310 µM, thresholds 50% rate, 100% fluorescence intensity)	classification of inhibitory effect (3 categories) (VQIVYK (PHF6); inhibition of PHF6 aggregation)	persistence of inhibitory effect (VQIVYK (PHF6); polymerization followed for 15 hours)
32	100	94	–	Ac-VQIVYK-NH2 [1p, VQIVYK]	strong amyloidogenic and self-aggregative potential	–	–	–	–
–	1.3	0	do not polymerize on their own	Ac-YQIVVK-NH2 [6tp, YQIVVK]	weakly amyloidogenic and weakly aggregative	slow compared to 1p alone and which have a lower fluorescence intensity	clearly inhibited; also recorded: marked inhibitory effect	with a strong inhibitory effect	the inhibitory effect persisted
